# Columns and labels:
# [1] = biological target: T1, EGFR (Homo sapiens, UniProt P00533); experiment: EGFR substrate phosphorylation enzyme assay (HTRF); format: biochemical; settings: isolated enzyme, 20 μM ATP
# T1 construct: made in house; host or cells: baculovirus expression system
# Experimental: Compounds of the present invention were tested for EGFR, ErbB-2, and ErbB4 protein tyrosine kinase Inhibitory activity in substrate phosphorylation assays using enzymes purified from a baculovirus expression system.
# (§1) The method measures the ability of the isolated enzyme to catalyse the transfer of the γ-phosphate from ATP onto the tyrosine residue of a biotinylated synthetic peptide (biotin-Ahx-[…]-amide). The extent of tyrosine phosphorylation was measured using an anti-phosphotyrosine antibody, and quantified by homogenous time-resolved fluorescence (HTRF).
# (§2) The enzymes were first diluted from their concentrated stock solutions into buffer containing 100 mM MOPS (pH7.5); 0.01% Tween-20; 0.1 mg/mL bovine serum albumin (BSA); and 80 nM EGFR, 100 nM ErbB2, or 100 nM ErbB4. The enzymes were incubated in this buffer for 30 minutes at room temperature before addition to the assay plates. Reactions were performed in black 384-well polystyrene flat-bottom plates in a final volume of 20 μL. Reaction mixtures contained 100 mM MOPS (pH 7.5), 2 mM MnCl2, 20 μM ATP, 0.01% Tween-20, 0.1 mg/mL (BSA), 0.8 μM peptide substrate, and 1 mM dithiothreitol. Reactions were initiated by adding enzyme. 0.4 nM EGRF, 5 nM ErbB2, and 0.5 nM ErbB4 were the final enzyme concentrations.
# Reactions were allowed to proceed for 90 minutes and were then terminated by the addition of 20 μL 100 mM EDTA to each well. 40 μL/well of HTRF mix were then added to the assay plates for the detection of phosphorylated substrate.
# Compounds under analysis were dissolved in Me2SO to 1.0 mM and serially diluted 1 to 3 with Me2SO through twelve dilutions. 1 μL of each concentration was transferred to the corresponding well of an assay plate.
# Data were fitted with a curve described by: y=((Vmax*x)/(K+x))+Y2 where Vmax is the upper asymptote, Y2 is the Y intercept, and K is the IC50.
# [2] = biological target: T2, ErbB2 (Homo sapiens, UniProt P04626); experiment: ErbB2 substrate phosphorylation enzyme assay (HTRF); format: biochemical; settings: isolated enzyme, 20 μM ATP
# T2 construct: made in house; host or cells: baculovirus expression system
# T2 sequence (P04626 676-1255 limits assumed): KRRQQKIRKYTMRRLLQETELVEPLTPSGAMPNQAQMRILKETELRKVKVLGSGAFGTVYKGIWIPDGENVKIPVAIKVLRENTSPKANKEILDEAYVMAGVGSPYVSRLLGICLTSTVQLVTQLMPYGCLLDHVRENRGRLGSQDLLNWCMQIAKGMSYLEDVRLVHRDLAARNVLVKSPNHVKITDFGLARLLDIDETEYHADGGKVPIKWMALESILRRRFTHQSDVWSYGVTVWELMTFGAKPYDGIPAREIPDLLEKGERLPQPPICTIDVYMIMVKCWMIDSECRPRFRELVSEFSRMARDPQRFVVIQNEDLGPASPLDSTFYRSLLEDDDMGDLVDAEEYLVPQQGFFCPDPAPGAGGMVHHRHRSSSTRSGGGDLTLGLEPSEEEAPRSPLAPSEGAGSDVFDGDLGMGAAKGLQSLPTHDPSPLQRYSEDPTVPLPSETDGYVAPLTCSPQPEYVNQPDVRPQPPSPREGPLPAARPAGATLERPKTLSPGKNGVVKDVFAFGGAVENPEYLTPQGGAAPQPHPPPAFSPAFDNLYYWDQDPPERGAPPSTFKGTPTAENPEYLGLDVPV
# Experimental: Compounds of the present invention were tested for EGFR, ErbB-2, and ErbB4 protein tyrosine kinase Inhibitory activity in substrate phosphorylation assays using enzymes purified from a baculovirus expression system. Reagent production was conducted essentially as described (Brignola, P. S., et al, (2002) J. Biol. Chem. v. 277 2, 1576-1585).
# as §1, §2
# Reactions were allowed to proceed for 90 minutes and were then terminated by the addition of 20 μL 100 mM EDTA to each well. 40 μL/well of HTRF mix were then added to the assay plates for the detection of phosphorylated substrate. Final assay concentrations were: 100 mM HEPES (pH7.5), 0.1 mg/mL BSA, 15 nM streptavidin-labeled allophycocyanin (PerkinElmer), and 1 nM europium-labeled anti-phosphotyrosine antibody (PerkinElmer). Assay plates were left unsealed and were counted in a Wallac Multilabel Counter 1420 (PerkinElmer).
# Compounds under analysis were dissolved in Me2SO to 1.0 mM and serially diluted 1 to 3 with Me2SO through twelve dilutions. 1 μL of each concentration was transferred to the corresponding well of an assay plate. This creates a final compound concentration range from 0.00027 to 47.6 μM.
# The data for dose responses were plotted as % Inhibition calculated with the data reduction formula 100*(1−(U1−C2)/(C1−C2)) versus concentration of compound where U is the unknown value, C1 is the average control value obtained for 4.76% DMSO, and C2 is the average control value obtained for 0.035 M EDTA. Data were fitted with a curve described by: y=((Vmax*x)/(K+x))+Y2 where Vmax is the upper asymptote, Y2 is the Y intercept, and K is the IC50. The results for reach compound were recorded as pIC50s, calculated as follows: pIC50=−Log10(K)
# T1 sequence (P00533 669-1210 limits assumed): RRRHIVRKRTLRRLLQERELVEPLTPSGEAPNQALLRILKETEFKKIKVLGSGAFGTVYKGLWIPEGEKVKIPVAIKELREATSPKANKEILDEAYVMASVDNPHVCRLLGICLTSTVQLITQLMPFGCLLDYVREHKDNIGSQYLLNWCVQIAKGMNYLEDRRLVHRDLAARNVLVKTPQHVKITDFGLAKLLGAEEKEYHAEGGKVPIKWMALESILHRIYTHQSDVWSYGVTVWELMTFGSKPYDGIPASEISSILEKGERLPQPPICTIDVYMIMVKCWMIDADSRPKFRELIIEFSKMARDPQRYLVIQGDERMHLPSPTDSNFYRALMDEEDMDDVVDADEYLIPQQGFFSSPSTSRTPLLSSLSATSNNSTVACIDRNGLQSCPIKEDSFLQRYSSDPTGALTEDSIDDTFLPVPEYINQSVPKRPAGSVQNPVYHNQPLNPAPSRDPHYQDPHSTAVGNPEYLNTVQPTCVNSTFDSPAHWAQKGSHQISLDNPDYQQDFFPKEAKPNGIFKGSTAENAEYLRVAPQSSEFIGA
Compound,IC50 [1],IC50 [2]
"C(=C\c1cncnc1Nc1ccc2sc(Cc3ccccc3)nc2c1)/c1ccsc1 [Example 5, 2-Benzyl-N-{5-[(E)-2-thien-3-ylethenyl]pyrimidin-4-yl}-1,3-benzothiazol-5-amine]",> 1000 nM,> 1000 nM
"C(=C\c1cncnc1Nc1ccc2c(cnn2Cc2ccccc2)c1)/c1cn[nH]c1 [Example 9, 1-Benzyl-N-{5-[(E)-2-(1H-pyrazol-4-yl)ethenyl]pyrimidin-4-yl}-1H-indazol-5-amine]",100 to 1000 nM,100 to 1000 nM
"Fc1cccc(COc2ccc(Nc3ncncc3/C=C/c3ccncc3)cc2Cl)c1 [Example 14, N-{3-Chloro-4-[(3-fluorobenzyl)oxy]phenyl}-5-[(E)-2-pyridin-4-ylethenyl]pyrimidin-4-amine]",< 100 nM,< 100 nM
"Fc1cccc(COc2ccc(Nc3ncncc3/C=C/c3ccsc3)cc2Cl)c1 [Example 17, N-{3-Chloro-4-[(3-fluorobenzyl)oxy]phenyl}-5-[(E)-2-thien-3-yletheny]pyrimidin-4-amine]",< 100 nM,< 100 nM
"CC(=O)Nc1cccc(/C=C/c2cncnc2Nc2ccc(OCc3cccc(F)c3)c(Cl)c2)c1 [Example 20, N-(3-{(E)-2-[4-({3-Chloro-4-[(3-fluorobenzyl)oxy]phenyl}amino)pyrimidin-5-yl]ethenyl}phenyl)acetamide]",< 100 nM,< 100 nM
"COc1ccc(/C=C/c2cncnc2Nc2ccc(OCc3cccc(F)c3)c(Cl)c2)cc1OC [Example 21, N-{3-Chloro-4-[(3-fluorobenzyl)oxy]phenyl}-5-[(E)-2-(3,4-dimethoxyphenyl)ethenyl]pyrimidin-4-amine]",< 100 nM,< 100 nM
"Fc1cccc(COc2ccc(Nc3ncncc3/C=C/c3ccccc3)cc2Cl)c1 [Example 22, N-{3-Chloro-4-[(3-fluorobenzyl)oxy]phenyl}-5-[(E)-2-phenylethenyl]pyrimidin-4-amine]",< 100 nM,< 100 nM
"N=C(N)Nc1cccc(C#Cc2cncnc2Nc2ccc(OCc3cccc(F)c3)c(Cl)c2)c1 [Example 49, N-(3-{[4-({3-Chloro-4-[(3-fluorobenzyl)oxy]phenyl}amino)pyrimidin-5-yl]ethynyl}phenyl)guanidine]",100 to 1000 nM,< 100 nM
"Nc1cccc(C#Cc2cncnc2Nc2ccc(OCc3cccc(F)c3)c(Cl)c2)n1 [Example 67, 5-[(6-Amino-2-pyridinyl)ethynyl]-N-(3-chloro-4-{[(3-fluorophenyl)methyl]oxy}phenyl)4-pyrimidinamine]",< 100 nM,< 100 nM
"CN(C)CCCC(=O)Nc1cccc(C#Cc2cncnc2Nc2ccc(OCc3cccc(F)c3)c(Cl)c2)n1 [Example 70, N-{6-[(4-{3-Chloro-4-[(3-fluorobenzyl)oxy]anilino}-5-pyrimidinyl)ethynyl]-2-pyridinyl}-4-(dimethylamino)butanamide]",< 100 nM,< 100 nM
"COC(=O)CCC(=O)Nc1cccc(C#Cc2cncnc2Nc2ccc(OCc3cccc(F)c3)c(Cl)c2)n1 [Example 71, Methyl 4-({6-[(4-{3-chloro-4-[(3-fluorobenzyl)oxy]anilino}-5-pyrimidinyl)ethynyl]-2-pyridinyl}amino)-4-oxobutanoate]",100 to 1000 nM,100 to 1000 nM
"CS(=O)(=O)CCNc1cccc(C#Cc2cncnc2Nc2ccc(OCc3cccc(F)c3)c(Cl)c2)n1 [Example 72, N-{3-Chloro-4-[(3-fluorobenzyl)oxy]phenyl}-5-[(6-{[2-(methylsulfonyl)ethyl]amino}-2-pyridinyl)ethynyl]-4-pyrimidinamine]",> 1000 nM,> 1000 nM
"Fc1cccc(COc2ccc(Nc3ncncc3C#Cc3cccc(CNCCN4CCOCC4)n3)cc2Cl)c1 [Example 76, N-{3-Chloro-4-[(3-fluorobenzyl)oxy]phenyl}-5-{[6-({[2-(4-morpholinyl)ethyl]amino}methyl)-2-pyridinyl]ethynyl}-4-pyrimidinamine]",100 to 1000 nM,100 to 1000 nM
"Fc1cccc(COc2ccc(Nc3ncncc3C#Cc3cccc(CNCCCn4ccnc4)n3)cc2Cl)c1 [Example 78, N-{3-Chloro-4-[(3-fluorobenzyl)oxy]phenyl}-5-{[6-({[3-(1H-imidazol-1-yl)propyl]amino}methyl)-2-pyridinyl]ethynyl}-4-pyrimidinamine]",< 100 nM,< 100 nM
"COCc1cccc(C#Cc2cncnc2Nc2ccc(OCc3cccc(F)c3)c(Cl)c2)n1 [Example 80, N-{3-Chloro-4-[(3-fluorobenzyl)oxy]phenyl}-5-{[6-(methoxymethyl)-2-pyridinyl]ethynyl}-4-pyrimidinamine]",> 1000 nM,> 1000 nM
"CS(=O)(=O)CCNC(=O)NCc1cccc(C#Cc2cncnc2Nc2ccc(OCc3cccc(F)c3)c(Cl)c2)n1 [Example 88, N-({6-[(4-{3-Chloro-4-[(3-fluorobenzyl)oxy]anilino}-5-pyrimidinyl)ethynyl]-2-pyridinyl}methyl)-N′-[2-(methylsulfonyl)ethyl]urea]",< 100 nM,< 100 nM
"O=C(NCCN1CCOCC1)NCc1cccc(C#Cc2cncnc2Nc2ccc(OCc3cccc(F)c3)c(Cl)c2)n1 [Example 89, N-({6-[(4-{3-Chloro-4-[(3-fluorobenzyl)oxy]anilino}-5-pyrimidinyl)ethynyl]-2-pyridinyl}methyl)-N′-[2-(4-morpholinyl)ethyl]urea]",< 100 nM,< 100 nM
"Fc1cccc(COc2ccc(Nc3ncncc3C#Cc3cccc(CN4CCCCC4)n3)cc2Cl)c1 [Example 92, N-{3-Chloro-4-[(3-fluorobenzyl)oxy]phenyl}-5-([6-(1-piperidinylmethyl)-2-pyridinyl]ethynyl}-4-pyrimidinamine]",< 100 nM,< 100 nM
"Nc1nccc(C#Cc2cncnc2Nc2ccc(OCc3cccc(F)c3)c(Cl)c2)n1 [Example 99, 4-{[4-({3-Chloro-4-[(3-fluorobenzyl)oxy]phenyl}amino)pyrimidin-5-yl]ethynyl}pyrimidin-2-amine]",–,< 100 nM
"O=C(Nc1cccc(C#Cc2cncnc2Nc2ccc(OCc3cccc(F)c3)c(Cl)c2)n1)C(F)(F)F [Example 100, N-(6-{[4-({3-Chloro-4-[(3-fluorobenzyl)oxy]phenyl}amino)pyrimidin-5-yl]ethynyl}pyridin-2-yl)-2,2,2-trifluoroacetamide]",< 100 nM,< 100 nM

# — patent publication US20060205740A1, “Chemical compounds” (priority 2003, published 2006)
